The values below come from patent US10342806B2, “Hormone treatment for age-related hearing loss-presbycusis” (priority 2014, dated 2019).

Test [1] has as its system NKCC1. The test can be described thus: 86Rb uptake in HT-29 cells. Type of test: cell-based, human. To be noted: HT-29 cells, 2, 4, 8, and 12 h after ALD. The method, then:
Cell culture and buffers. […] Arch Oral Biol 52: 411-416, 2007). […] J Cell Sci 112: […], 1999, Epple, et al., Early aldosterone effect in distal colon by transcriptional regulation of ENaC subunits. Am J Physiol Gastrointest Liver Physiol 278: […] Am J Physiol Cell Physiol 305: […]-[…], 2013). HT-29 cells were grown in DMEM media (Invitrogen, Carlsbad Calif.) with 10% FBS and antibiotics. Cells were grown in a humidified 95%/5% CO2 incubator at 37° C. Experiments were performed at 70-80% confluence. ^86Rb uptake. Similar to previous studies of NKCC1 activity (Gagnon & Delpire, Molecular determinants of hyperosmotically activated NKCC1-mediated K_/K_exchange. J Physiol 588: 3385-3396, 2010), cells were plated on six-well dishes and incubated at 37° C./5% CO2 until confluent. For the uptake, cells were first washed twice with 1 ml of isosmotic saline (140 mM NaCl, 5 mM KCl, 2 mM CaCl2, 0.8 mM MgSO4, 5 mM glucose, 5 mM HEPES buffered to pH 7.4, and 300.5 mosM). […] After a 20-min uptake, the radioactive solution was aspirated, and the cells were washed three times with 1 ml of ice-cold solution, lysed for 1 h with 500 μl of 0.25 N NaOH, and neutralized with 250 μl of glacial acetic acid. ^86Rb tracer activity was measured by using 150 μl of lysate for γ-scintillation counting. […]

The subject of test [2] is mineralocorticoid receptors (MCR). The test can be described thus: MCR expression in spiral ganglion neurons (western blot, immunohistochemistry). To be noted: middle-aged mice, ALD treatment vs young adult and middle age controls. Type of test: in vivo, mouse. The method, then: Death was confirmed by terminal phlebotomy/exsanguinations and perfusion.
After sacrifice, a cochlear modiolus (CM) was dissected from the temporal bone, & pooled together for measuring NKCC1 protein and mRNA expression. The other CM was prepared for immunohistochemistry as described below. Data was analyzed using one-way ANOVA, and two-way repeated measures ANOVA through GraphPad Prism 5.0 with protein level measurements (Δ Intensity=Background tissue intensity−experimental area intensity) (GraphPad Software, La Jolla, Calif.).
For Western blot and RT-PCR, cells were placed in RIPA buffer and sonicated. Protein concentration was measured using the Bradford method. Proteins were separated by SDS-PAGE. […]
For immunohistochemistry, mice were sacrificed, and one of the cochleae dissected, fixed in 4% paraformaldehyde in PBS overnight at 4° C., decalcification in 10% EDTA in PBS for a week at 4° C., and incubated in cryoprotection solution overnight at 4° C. […] The spiral ganglion neurons were counted by Metamorph imaging software (Molecular Devices, Center Valley, Pa. 18034-0610) and data analyzed by GraphPad Prism (GraphPad Software, Inc. La Jolla, Calif.).
Levels of staining for MCR presence in young adult and middle-aged mice was determined by densitometry analysis (MetaMorph Image Analysis System) of immunocytochemistry sections.

The subject of test [3] is NKCC1 mRNA. The test can be described thus: NKCC1 mRNA in HT-29 cells, semiquantitative and real-time RT-PCR. To be noted: ALD 1 μM, both RT-PCR methods. Type of test: cell-based, human. As for the experimental part: Relative quantitative RT-PCR. Total RNA was extracted using the RNAeasy Mini Kit (Qiagen, Valencia Calif.). […] Primers used for qRTPCR were as follows: […]
The semiquantitative qRT-PCR reaction took place at 45° C. for 50 min. The competition between primer sets was excluded by adjusting the reaction condition.
Then, the primer products were PCR amplified directly. A first cycle of 10 min. at 95° C., 45 s at 65° C., and 1 min at 72° C. was followed by 45 s at 95° C., 45 s at 65° C., and 1 min at 72° C. for 25 cycles. The conditions were chosen so that the RNAs analyzed were in the exponential phase of amplification. Each set of reactions always included a no-sample negative control. We usually performed a negative control containing RNA instead of cDNA to rule out genomic DNA contamination.
The real-time RT-PCR reaction mixture was prepared using the SYBR-Green PCR Master Mix. Thermal cycling conditions were the same as in the semiquantitative method. Amplification specificity was checked using melting curves. Both negative and positive controls were included in each PCR reaction. All assays were carried out three times as independent PCR runs for each cDNA sample. […] Calculations of expression were performed with the […] method (Bustin, et al., Quantitative real-time RTPCR—a perspective. J Mol Endocrinol 34: 597-601, 2005).
On the technique in general: In qPCR the cycle at which signal appears reflects the starting amount.

Turning to `C[C@]12CCC(=O)C=C1CC[C@@H]1[C@@H]2[C@@H](O)C[C@]2(C=O)[C@@H](C(=O)CO)CC[C@@H]12` [ALD, aldosterone], the “NKCC1 protein activity (86Rb uptake)” value in test [1] was “upregulated NKCC1 protein activity”. In test [2], the “MCR expression levels, densitometry of immunocytochemistry sections” value is recorded as “partially rescued the expression levels seen in the young adult”. Further, in test [3], the “NKCC1 mRNA” value was “no mRNA change”.
